System: U373 glioblastoma cells
Experiment: In vitro adhesion assay to ECM proteins, U373
Type: cell-based, human
Conditions: laminin-, fibronectin-, and collagen-coated plates, 0.1 μM to 1 μM for 24 hours
Procedure: Human brain tumor cell lines U-373 MG and breast cancer cell lines BT-20 and MDA-MB-231 were obtained from American Type Culture Collection (ATCC, Rockville, Md.) and maintained in liquid culture using DMEM supplemented with 10% fetal bovine serum and antibiotics. Fibroblast conditioned medium was used as a source of chemoattractant in vitro invasion assays. Conditioned medium was prepared as described in the literature (Albini et.al., 1987, Cancer Res., 47:3239-3245).
In vitro adhesion assays were performed to (a) study the baseline adhesive properties of various breast cancer and glioblastoma cell lines and (b) evaluate the effects of phorboxazole A derivatives on the adhesive properties of breast cancer and glioblastoma cells. The plates for the adhesion assays were precoated with the extracellular matrix proteins laminin, fibronectin, or type IV collagen (each at a final concentration of 1 μg/ml in PBS) overnight at 4° C. and dried. On the day of the experiment, the wells were rehydrated and blocked with 10% bovine serum albumin in PBS for 1 hour at room temperature and used for the adhesion assays, as described below.
The effects of synthetic phorboxazole A and specific derivatives on adhesion of breast cancer and glioblastoma cells was studied. Exponentially growing cells in DMEM were incubated with phorboxazole compounds or genistein as a control at concentrations ranging from 0.1 μM to 1 μM for 24 hours in a humidified 5% CO2 atmosphere. DMSO (0.1%) was included as a vehicle control. After treatment, cells were detached from the flasks with 0.05% trypsin (Life Technologies) resuspended in DMEM, incubated at 37° C. for 2 hours to allow them to recover from the trypsinization stress and examined for their ability to adhere to plates precoated with ECM proteins.
In adhesion assays, cells were centrifuged, washed twice with serum-free DMEM, counted and resuspended in serum-free DMEM to a final concentration of 2.5×10^5 cells/ml. […] The adherent fraction was quantitated using MTT (3-[4,5-dimethylthiazol-2-yl]-2,5-diphenyltetrazolium bromide) assays. […] The absorbance of each well was measured in a microplate reader (Labsystems) at 540 nm and a reference wavelength of 690 nm.
To translate the OD540 values into the number of cells in each well, the OD540 values were compared to those on standard OD540-versus-cell number curves generated for each cell line. The adherent fractions of cells treated with phorboxazole A derivatives were compared to those of DMSO-treated control cells and the percent inhibition of adhesion was determined using the formula: [formula]
Each treatment condition was evaluated in duplicate in 3 independent experiments. The IC50 values were calculated by non-linear regression analysis. […]

C=C1C[C@@H]2C[C@@H]3C[C@@H](O)C[C@@H](O3)c3coc(n3)/C=C/C[C@H]3O[C@@H](/C(C)=C/c4coc(C[C@]5(O)C[C@H](OC)C[C@H]([C@H](O)/C=C(C)/C=C/[C@@H](C/C=C/Br)OC)O5)n4)[C@H](C)[C@@H](OC(=O)/C=C\C[C@@H](C1)O2)[C@H]3C [Compound 1, Phorboxazole A]
Inhibition of cell adhesion: active
